According to US20260337172A1, “AMINOPIPERAZINES WITH BROAD SPECTRUM ANTIMICROBIAL ACTIVITY” (The United States Government as represented by the …, priority 2022, published 2026):
≈ marks a conversion by molar mass, not a printed value. Read-outs that look alike come from different tables or passages of the source.

System: C. auris
Assay: minimum inhibitory concentration, C. auris (Table 3)
Assay type: cell-based, Candida auris
Settings: Candidozyma auris
From the text: Table 2 and Table 3 below show the minimum inhibitory concentration values for the synthesized compounds as tested on bacterial strains.

[1] = 50% inhibition, first of two values in cell, read-out: minimum inhibitory concentration, C. auris 50% inhib.
[2] = 50% inhibition, second of two values in cell, read-out: minimum inhibitory concentration, C. auris 50% inhib.
[3] = 90% inhibition, first of two values in cell, read-out: minimum inhibitory concentration, C. auris 90% inhib.
[4] = 90% inhibition, second of two values in cell, read-out: minimum inhibitory concentration, C. auris 90% inhib.

Structure (SMILES) | MIC [1] [µg/mL] | MIC [2] [µg/mL] | MIC [3] [µg/mL] | MIC [4] [µg/mL]
C[C@@H]1[C@H](O)[C@@H](C)/C=C/C=C/C=C/C=C/C=C/C=C/C=C/[C@H](O[C@@H]2O[C@H](C)[C@@H](O)[C@H](N)[C@@H]2O)C[C@@H]2O[C@](O)(C[C@@H](O)C[C@@H](O)[C@H](O)CC[C@@H](O)C[C@@H](O)CC(=O)O[C@H]1C)C[C@H](O)[C@H]2C(=O)O [Amphotericin B, reference compound] | 1 (≈ 1.08 µM) | 1 (≈ 1.08 µM) | 1 (≈ 1.08 µM) | 1 (≈ 1.08 µM)
CN1CCN(/N=C/c2ccc(Cl)c([N+](=O)[O-])c2)CC1 [Compound 3] | 256 (≈ 905 µM) | 128 (≈ 453 µM) | 256 (≈ 905 µM) | 256 (≈ 905 µM)
CN1CCN(/N=C/c2ccc([N+](=O)[O-])cc2)CC1 [Compound 4] | 256 (≈ 1030 µM) | 256 (≈ 1030 µM) | > 256 | > 256
COc1ccc(/C=N/N2CCN(C)CC2)c2ccccc12 [Compound 5, (E)-1-(4-methoxynaphthalen-1-yl)-N-(4-methylpiperazin-1-yl)methanimine] | 128 (≈ 452 µM) | 128 (≈ 452 µM) | 256 (≈ 903 µM) | 256 (≈ 903 µM)
CN1CCN(/N=C/c2ccc(-c3ccccc3)cc2)CC1 [Compound 17] | 64 (≈ 229 µM) | 64 (≈ 229 µM) | 128 (≈ 458 µM) | 128 (≈ 458 µM)
COc1cccc(/C=N/N2CCN(C)CC2)c1O [Compound 20] | 128 (≈ 513 µM) | 128 (≈ 513 µM) | 256 (≈ 1030 µM) | 256 (≈ 1030 µM)
